Experimental data from ChEMBL document CHEMBL1201862, “PubChem BioAssay data set” (2004).
Active and inactive are the calls of the source. Rule as the data show it: actives have a measured IC50 and inactives only a lower limit.

These molecules were tested against Envelope glycoprotein gp160 (Human immunodeficiency virus 1, UniProt Q6QLK5) (assay: inhibitors of HIV fusion peptide binding, primary screen, biochemical, uHTS, fluorescence dequenching (AID 1986)).
Chain of Envelope glycoprotein gp160 (Q6QLK5 whole entry, the tested form may be a part): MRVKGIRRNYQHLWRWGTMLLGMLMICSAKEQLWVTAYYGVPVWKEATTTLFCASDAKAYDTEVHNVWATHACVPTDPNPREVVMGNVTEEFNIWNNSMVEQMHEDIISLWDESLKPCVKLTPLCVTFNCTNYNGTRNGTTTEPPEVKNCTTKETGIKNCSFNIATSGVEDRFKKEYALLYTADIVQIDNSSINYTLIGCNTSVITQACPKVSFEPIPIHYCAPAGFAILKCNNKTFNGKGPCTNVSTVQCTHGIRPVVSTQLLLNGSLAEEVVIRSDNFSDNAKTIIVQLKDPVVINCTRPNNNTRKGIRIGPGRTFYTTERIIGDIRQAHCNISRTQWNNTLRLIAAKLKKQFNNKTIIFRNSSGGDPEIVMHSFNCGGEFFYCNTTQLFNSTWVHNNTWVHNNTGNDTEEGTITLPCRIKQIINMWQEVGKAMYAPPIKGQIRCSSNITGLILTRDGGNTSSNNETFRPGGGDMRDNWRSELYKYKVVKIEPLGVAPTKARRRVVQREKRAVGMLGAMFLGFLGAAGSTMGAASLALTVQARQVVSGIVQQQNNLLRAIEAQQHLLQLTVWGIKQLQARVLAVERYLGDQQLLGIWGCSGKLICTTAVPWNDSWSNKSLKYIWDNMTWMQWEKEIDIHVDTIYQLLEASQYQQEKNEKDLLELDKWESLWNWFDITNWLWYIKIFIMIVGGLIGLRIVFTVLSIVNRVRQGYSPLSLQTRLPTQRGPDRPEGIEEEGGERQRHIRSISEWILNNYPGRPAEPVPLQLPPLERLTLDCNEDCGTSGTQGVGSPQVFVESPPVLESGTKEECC
In the case of `CCCCCCCCCCCCCCCC[n+]1ccn(CC(C)=O)c1`, the IC50 is reported as 14.4 µM (active). In the case of `O=C(Nc1ccc(-c2nc3ccccc3[nH]2)cc1)c1ccccc1NS(=O)(=O)c1ccc(F)cc1`, the IC50 is reported as 24.6 µM (active). For `Cc1ccccc1NC1=NC(=O)/C(=C/c2cccn2-c2cccc(C(=O)O)c2)S1`, the IC50 was 11.3 µM (active).
